Reference: patent US20250136583A1, “NOVEL SALT FORMS OF ISOCHROMAN-IMIDAZOLE STRUCTURED ALPHA-2A ADRENOCEPTOR AGONIST” (ORION CORPORATION, priority 2022, published 2025)
Structures can show the parent of a compound that is named as a salt.

Assays:
[1] = Physical stability of the salts (storage at elevated temperature and relative humidity, re-analysis by XRPD); type: physicochemical; conditions: for Form after stability / Physical stability: solids exposed for 2 or 3 weeks at 40° C. and 70-80% relative humidity; for Form after stability: XRPD; for Physical stability: re-analyzed by XRPD
Method: XRPD measurements were performed with the X-ray powder diffractometer Bruker D8 Advance at room temperature, using a copper filled X-ray tube (40 kV×40 mA) as the X-ray source, CuKα (λ=1.5418 Å), a 0.6 mm divergence slit, 2.5° Soller slits on both the primary and secondary beams and the 1-dimensional LynxEye detector (with aperture angle of 2.91593°). Data collection was done in the range of 3.8-33° 2θ with 0.02° increments, at a scan speed of 0.3°/s.
A stability test was carried out for all crystalline salt forms resulted from the salt screen by exposing the solids for 2 or 3 weeks at 40° C. and 70-80% relative humidity. After exposure, the solids were re-analyzed by XRPD, followed by physical stability assessment.

[2] = Chemical stability of the salts (stress at 60° C. and 75% relative humidity, purity by UHPLC); type: physicochemical; conditions: for Purity (%) of 1 day stress samples / Difference between reference and 1 day stressed sample: 1 day at 60° C. and 75% relative humidity; for Purity (%) of 1 day stress samples / Purity (%) of 14 day stress samples / Purity (%) of reference: UHPLC; for Difference between reference and 1 day stressed sample / Difference between reference and 14 day stressed sample: purity difference, in %; for Purity (%) of 14 day stress samples / Difference between reference and 14 day stressed sample: 14 days at 60° C. and 75% relative humidity; for Purity (%) of reference: unstressed sample
Method: The purity analyses were performed using Agilent UHPLC equipment with PDA/DAD detector at 210 nm wavelength and reverse phase liquid chromatography column Acquity UPLC HSS T3, 100×3.0 mm, 1.8 μm (Waters). The chromatography was performed with gradient run using acetonitrile and phosphate buffer (pH 3.0) as eluents.
The chemical stability of various salts of compound (I) was determined by stressing the salts for 1 and 14 days at 60° C. and 75% relative humidity. The unstressed sample was used as an reference. The purity of the samples were analyzed using UHPLC, and the purity difference between the stressed and reference was calculated.

SMILES: COc1cccc2c1CCOC2C1=NCCN1 (stereo not drawn) [Methanesulfonic acid salt Form 1, 2-(5-methoxyisochroman-1-yl)-4,5-dihydro-1H-imidazole]
- Form after stability [1]: Amorphous
- Form after stability ([1]; listed as methanesulfonic acid): turned into amorphous phase
- Physical stability [1]: Unstable

SMILES: COc1cccc2c1CCOC2C1=NCCN1 [L-tartaric acid salt Form 1, 2-(5-methoxyisochroman-1-yl)-4,5-dihydro-1H-imidazole]
- Form after stability [1]: Form 1
- Physical stability [1]: Stable
- Physical stability ([1]; listed as L-tartaric acid (form 1)): remained stable
- Purity (%) of 1 day stress samples [2]: 97.9%
- Difference between reference and 1 day stressed sample [2]: 1.0
- Purity (%) of 14 day stress samples [2]: 90.3%
- Difference between reference and 14 day stressed sample [2]: 8.7
- Purity (%) of reference [2]: 99.0%

SMILES: COc1cccc2c1CCOC2C1=NCCN1 [L-Glutamic acid salt Form 1, 2-(5-methoxyisochroman-1-yl)-4,5-dihydro-1H-imidazole]
- Form after stability [1]: extra peaks in the XRPD pattern

SMILES: COc1cccc2c1CCOC2C1=NCCN1 (stereo not drawn) [Saccharin salt, 2-(5-methoxyisochroman-1-yl)-4,5-dihydro-1H-imidazole]
- Purity (%) of 1 day stress samples [2]: 95.0%
- Difference between reference and 1 day stressed sample [2]: 2.1
- Purity (%) of 14 day stress samples [2]: 91.5%
- Difference between reference and 14 day stressed sample [2]: 5.6
- Purity (%) of reference [2]: 97.1%

SMILES: COc1cccc2c1CCOC2C1=NCCN1 (stereo not drawn) [Cyclamic acid salt Form 2, 2-(5-methoxyisochroman-1-yl)-4,5-dihydro-1H-imidazole]
- Form after stability ([1]; listed as cyclamic acid (form 2)): extra peaks in the XRPD pattern

SMILES: COc1cccc2c1CCOC2C1=NCCN1 (stereo not drawn) [Saccharin salt Form 2, 2-(5-methoxyisochroman-1-yl)-4,5-dihydro-1H-imidazole]
- Form after stability [1]: Form 2
- Physical stability [1]: Stable
- Physical stability ([1]; listed as saccharin (form 2)): remained stable

SMILES: COc1cccc2c1CCOC2C1=NCCN1 (stereo not drawn) [2-Ketoglutaric acid salt Form 1, 2-(5-methoxyisochroman-1-yl)-4,5-dihydro-1H-imidazole]
- Form after stability [1]: Amorphous
- Form after stability ([1]; listed as 2-ketoglutaric acid): turned into amorphous phase
- Physical stability [1]: Unstable

SMILES: COc1cccc2c1CCOC2C1=NCCN1 [L-Aspartic acid salt Form 1, 2-(5-methoxyisochroman-1-yl)-4,5-dihydro-1H-imidazole]
- Form after stability [1]: Form 1 + amorphous
- Form after stability ([1]; listed as L-aspartic acid): an amorphous phase with characteristic peaks of the counter-ion
- Physical stability [1]: Unstable

SMILES: COc1cccc2c1CCOC2C1=NCCN1 (stereo not drawn) [Fumaric acid salt Form 1, 2-(5-methoxyisochroman-1-yl)-4,5-dihydro-1H-imidazole]
- Form after stability [1]: Form 1
- Physical stability [1]: Stable
- Physical stability ([1]; listed as fumaric acid (form 1)): remained stable

SMILES: COc1cccc2c1CCOC2C1=NCCN1 (racemic) [D,L-Lactic acid salt Form 1, 2-(5-methoxyisochroman-1-yl)-4,5-dihydro-1H-imidazole]
- Form after stability [1]: Form 2
- Form after stability ([1]; listed as D,L-lactic acid): completely
- Physical stability [1]: Unstable

SMILES: COc1cccc2c1CCOC2C1=NCCN1 (stereo not drawn) [Cyclamic acid salt Form 1, 2-(5-methoxyisochroman-1-yl)-4,5-dihydro-1H-imidazole]
- Form after stability [1]: Form 2
- Form after stability ([1]; listed as cyclamic acid (form 1)): completely
- Physical stability [1]: Unstable

SMILES: COc1cccc2c1CCOC2C1=NCCN1 (stereo not drawn) [Saccharin salt Form 1, 2-(5-methoxyisochroman-1-yl)-4,5-dihydro-1H-imidazole]
- Crystalline form conversion on storage ([1]; 40° C., 75% RH for 3 weeks): partially conversion into form 2
- Form after stability [1]: Form 1 + Form 2
- Form after stability ([1]; listed as saccharin (form 1)): changed partially
